pKi: −log10 of the molar value.
Biological target: T1, Dimer of Gag-Pol polyprotein [501-599] (Human immunodeficiency virus 1, UniProt P03367)
T1 construct: 501-599
Assay: Protease Inhibition Assay
Settings: pH 4.7; 30 °C
Description: HIV-1 protease activity was measured by a continuous fluorometric assay using the internally quenched fluorogenic substrate DABCYL-Ser-Gln-Asn-Tyr-Pro-Ile-Val-Gln-EDANS. The proteolytic activity can be monitored by the increase in fluorescence intensity, and the protease products were analyzed by HPLC.

Compound	pKi
Cc1ccc(S(=O)(=O)N(CC(C)C)[C@@H](CCCCNC(=O)NCc2ccccn2)C(=O)O)cc1 [(2S)-2-[(4-methylbenzene)(2-methylpropyl)sulfonamido]-6-{[(pyridin-2-ylmethyl)carbamoyl]amino}hexanoic acid]	< 6.52
Cc1ccc(S(=O)(=O)N(CC(C)C)[C@@H](CCCCNC(=O)N(CCc2ccccc2)Cc2ccccc2)C(=O)O)cc1 [(2S)-6-{[benzyl(2-phenylethyl)carbamoyl]amino}-2-[(4-methylbenzene)(2-methylpropyl)sulfonamido]hexanoic acid]	< 6.52
